The record followed here is patent US8680113B2, “BMI-1 protein expression modulators” (PTC Therapeutics, Inc., priority 2008, dated 2014).

In this experiment the test system is Bmi-1. Description: Sandwich ELISA Assay (Bmi-1 ELISA in HT-1080 cells). The experiment is classed as cell-based, human. The method in brief:
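HT-1080 cells (8000/well) were treated with compounds in 0.5% final DMSO for 40-48 h at 37°C and then lysed. Bmi-1 in lysates was measured by sandwich ELISA: overnight capture at 4°C on mouse monoclonal, rabbit anti-Bmi-1 detection, HRP anti-rabbit, TMB. OD450 was read with an OD570 reference against a recombinant GST-Bmi-1 standard curve (0-8000 pg/mL).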
The IC50 is the point on the concentration scale where inhibition reaches its midpoint. A low value points to inhibition by little substance. `Cc1nc2ccccn2c1-c1ccnc(Nc2cccc(O)c2)n1` [Cpd 190, 3-{[4-(2-methylimidazo[1,2-a]pyridin-3-yl)pyrimidin-2-yl]amino}phenol]: the concentration for half-maximal inhibition (IC50) is less than 500 nM. The result for `Cc1ccc(Nc2nc(-c3c(C)nc4ccccn34)cs2)cc1` [Cpd 191, 4-(2-methylimidazo[1,2-a]pyridin-3-yl)-N-(4-methylphenyl)-1,3-thiazol-2-amine] reads less than 500 nM; that for `CCc1ccc(Nc2nc(-c3c(C)nc4ccccn34)cs2)cc1` [Cpd 192, N-(4-ethylphenyl)-4-(2-methylimidazo[1,2-a]pyridin-3-yl)-1,3-thiazol-2-amine], less than 500 nM; that for `CCN(CC)c1ccc(Nc2nc(-c3c(C)nc4ccccn34)cs2)cc1` [Cpd 193, N,N-diethyl-N′-[4-(2-methylimidazo[1,2-a]pyridin-3-yl)-1,3-thiazol-2-yl]benzene-1,4-diamine], less than 500 nM. With `CC(=O)Nc1ccc(Nc2nc(-c3c(C)nc4ccccn34)cs2)cc1` [Cpd 194, N-(4-{[4-(2-methylimidazo[1,2-a]pyridin-3-yl)-1,3-thiazol-2-yl]amino}phenyl)acetamide] the figure was less than 500 nM; with `FC(F)(F)c1nc2ccccn2c1-c1csc(Nc2ccc3c(c2)OCO3)n1` [Cpd 195, N-(1,3-benzodioxol-5-yl)-4-[2-(trifluoromethyl)imidazo[1,2-a]pyridin-3-yl]-1,3-thiazol-2-amine], less than 500 nM; with `Cc1nc2ccccn2c1-c1ccnc(Nc2ccc(C(=O)O)cc2)n1` [Cpd 196, 4-{[4-(2-methylimidazo[1,2-a]pyridin-3-yl)pyrimidin-2-yl]amino}benzoic acid], less than 500 nM.

As to `Cc1nc2ccccn2c1-c1csc(Nc2ccc(Br)cc2)n1` [Cpd 197, N-(4-bromophenyl)-4-(2-methylimidazo[1,2-a]pyridin-3-yl)-1,3-thiazol-2-amine], the half-maximal inhibitory concentration (IC50) is less than 500 nM.

The compound `Cc1nc2ccccn2c1-c1csc(Nc2ccc(Cl)c(Cl)c2)n1` [Cpd 198, N-(3,4-dichlorophenyl)-4-(2-methylimidazo[1,2-a]pyridin-3-yl)-1,3-thiazol-2-amine] gave a 50% inhibitory concentration (IC50) of less than 500 nM. The result for `Cc1nc2ccccn2c1-c1csc(Nc2ccc(Cl)cc2)n1` [Cpd 199, N-(4-chlorophenyl)-4-(2-methylimidazo[1,2-a]pyridin-3-yl)-1,3-thiazol-2-amine] reads less than 500 nM.

In turn, `Cc1nc2ccccn2c1-c1csc(Nc2ccc(Br)cc2Cl)n1` [Cpd 200, N-(4-bromo-2-chlorophenyl)-4-(2-methylimidazo[1,2-a]pyridin-3-yl)-1,3-thiazol-2-amine] showed an IC50 of less than 500 nM. With `Cc1nc2ccccn2c1-c1csc(Nc2ccc(O)c(O)c2)n1` [Cpd 201, 4-{[4-(2-methylimidazo[1,2-a]pyridin-3-yl)-1,3-thiazol-2-yl]amino}benzene-1,2-diol] the figure was less than 500 nM. The result for `COc1ccc(Nc2nc(-c3c(C)nc4ccccn34)cs2)cc1OC` [Cpd 202, N-(3,4-dimethoxyphenyl)-4-(2-methylimidazo[1,2-a]pyridin-3-yl)-1,3-thiazol-2-amine] reads less than 500 nM; that for `Cc1nc2ccccn2c1-c1csc(Nc2ccc(F)cc2F)n1` [Cpd 203, N-(2,4-difluorophenyl)-4-(2-methylimidazo[1,2-a]pyridin-3-yl)-1,3-thiazol-2-amine], less than 500 nM.

`CCOc1ccc(Nc2nc(-c3c(C)nc4ccccn34)cs2)cc1` [Cpd 204, N-(4-ethoxyphenyl)-4-(2-methylimidazo[1,2-a]pyridin-3-yl)-1,3-thiazol-2-amine] displayed a concentration for half-maximal inhibition (IC50) of less than 500 nM. With `Cc1ccc(Nc2nc(-c3c(C)nc4ccc(Cl)cn34)cs2)c(Br)c1` [Cpd 205, N-(2-bromo-4-methylphenyl)-4-(6-chloro-2-methylimidazo[1,2-a]pyridin-3-yl)-1,3-thiazol-2-amine] the figure was less than 500 nM; with `CCN(CC)c1ccc(Nc2nc(-c3c(C)nc4ccc(Cl)cn34)cs2)cc1` [Cpd 206, N′-[4-(6-chloro-2-methylimidazo[1,2-a]pyridin-3-yl)-1,3-thiazol-2-yl]-N,N-diethylbenzene-1,4-diamine], less than 500 nM; with `COc1ccc(Nc2nc(-c3c(C)nc4ccc(Cl)cn34)cs2)cc1OC` [Cpd 207, 4-(6-chloro-2-methylimidazo[1,2-a]pyridin-3-yl)-N-(3,4-dimethoxyphenyl)-1,3-thiazol-2-amine], less than 500 nM. The result for `COc1ccc(Nc2nc(-c3c(C)nc4ccc(Cl)cn34)cs2)c(Br)c1` [Cpd 208, N-(2-bromo-4-methoxyphenyl)-4-(6-chloro-2-methylimidazo[1,2-a]pyridin-3-yl)-1,3-thiazol-2-amine] reads less than 500 nM; that for `Cc1cccc(Nc2nc(-c3c(C)nc4ccc(Cl)cn34)cs2)c1` [Cpd 209, 4-(6-chloro-2-methylimidazo[1,2-a]pyridin-3-yl)-N-(3-methylphenyl)-1,3-thiazol-2-amine], less than 500 nM. With `Cc1nc2ccc(Cl)cn2c1-c1csc(Nc2cccc(O)c2)n1` [Cpd 210, 3-{[4-(6-chloro-2-methylimidazo[1,2-a]pyridin-3-yl)-1,3-thiazol-2-yl]amino}phenol] the figure was less than 500 nM; with `CC(=O)c1cccc(Nc2nc(-c3c(C)nc4ccc(Cl)cn34)cs2)c1` [Cpd 211, 1-(3-{[4-(6-chloro-2-methylimidazo[1,2-a]pyridin-3-yl)-1,3-thiazol-2-yl]amino}phenyl)ethanone], less than 500 nM; with `Cc1nc2ccc(Cl)cn2c1-c1csc(Nc2cccc(Br)c2)n1` [Cpd 212, N-(3-bromophenyl)-4-(6-chloro-2-methylimidazo[1,2-a]pyridin-3-yl)-1,3-thiazol-2-amine], less than 500 nM. As for `Cc1nc2ccc(Cl)cn2c1-c1csc(Nc2cccc(Cl)c2)n1` [Cpd 213, 4-(6-chloro-2-methylimidazo[1,2-a]pyridin-3-yl)-N-(3-chlorophenyl)-1,3-thiazol-2-amine], the IC50 is less than 500 nM. With `Cc1ccc(Nc2nc(-c3c(C)nc4ccc(Cl)cn34)cs2)c(C)c1` [Cpd 214, 4-(6-chloro-2-methylimidazo[1,2-a]pyridin-3-yl)-N-(2,4-dimethylphenyl)-1,3-thiazol-2-amine] the figure was less than 500 nM; with `Cc1nc2ccc(Cl)cn2c1-c1csc(Nc2cccc(F)c2)n1` [Cpd 215, 4-(6-chloro-2-methylimidazo[1,2-a]pyridin-3-yl)-N-(3-fluorophenyl)-1,3-thiazol-2-amine], less than 500 nM. The result for `Cc1cc(Br)ccc1Nc1nc(-c2c(C)nc3ccc(Cl)cn23)cs1` [Cpd 216, N-(4-bromo-2-methylphenyl)-4-(6-chloro-2-methylimidazo[1,2-a]pyridin-3-yl)-1,3-thiazol-2-amine] reads less than 500 nM; that for `COc1cccc(Nc2nc(-c3c(C)nc4ccc(Cl)cn34)cs2)c1` [Cpd 217, 4-(6-chloro-2-methylimidazo[1,2-a]pyridin-3-yl)-N-(3-methoxyphenyl)-1,3-thiazol-2-amine], less than 500 nM; that for `Cc1nc2ccc(Cl)cn2c1-c1csc(Nc2ccc(Cl)cc2Cl)n1` [Cpd 218, 4-(6-chloro-2-methylimidazo[1,2-a]pyridin-3-yl)-N-(2,4-dichlorophenyl)-1,3-thiazol-2-amine], less than 500 nM. With `Cc1nc2ccc(Cl)cn2c1-c1csc(Nc2ccc3c(c2)OC(C)(C)O3)n1` [Cpd 219, 4-(6-chloro-2-methylimidazo[1,2-a]pyridin-3-yl)-N-(2,2-dimethyl-1,3-benzodioxol-5-yl)-1,3-thiazol-2-amine] the figure was less than 500 nM; with `Cc1nc2c(Cl)cc(Cl)cn2c1-c1csc(Nc2ccc3c(c2)OCO3)n1` [Cpd 220, N-(1,3-benzodioxol-5-yl)-4-(6,8-dichloro-2-methylimidazo[1,2-a]pyridin-3-yl)-1,3-thiazol-2-amine], less than 500 nM; with `Cc1nc2c(C)cccn2c1-c1csc(Nc2ccc(N(C)C)cc2)n1` [Cpd 221, N′-[4-(2,8-dimethylimidazo[1,2-a]pyridin-3-yl)-1,3-thiazol-2-yl]-N,N-dimethylbenzene-1,4-diamine], less than 500 nM. As to `COc1ccc(Nc2nc(-c3c(C)nc4c(C)cccn34)cs2)cc1` [Cpd 222, 4-(2,8-dimethylimidazo[1,2-a]pyridin-3-yl)-N-(4-methoxyphenyl)-1,3-thiazol-2-amine], the IC50 is less than 500 nM. On to `Cc1ccc(Nc2nc(-c3c(C)nc4c(C)cccn34)cs2)cc1` [Cpd 223, 4-(2,8-dimethylimidazo[1,2-a]pyridin-3-yl)-N-(4-methylphenyl)-1,3-thiazol-2-amine], for which the IC50 was less than 500 nM. With `Cc1nc2c(C)cccn2c1-c1csc(Nc2ccc(Cl)cc2)n1` [Cpd 224, N-(4-chlorophenyl)-4-(2,8-dimethylimidazo[1,2-a]pyridin-3-yl)-1,3-thiazol-2-amine] the figure was less than 500 nM; with `COc1cccc(Nc2nc(-c3c(C)nc4c(C)cccn34)cs2)c1` [Cpd 225, 4-(2,8-dimethylimidazo[1,2-a]pyridin-3-yl)-N-(3-methoxyphenyl)-1,3-thiazol-2-amine], less than 500 nM. `Cc1nc2c(C)cccn2c1-c1csc(Nc2ccc3c(c2)OCO3)n1` [Cpd 226, N-(1,3-benzodioxol-5-yl)-4-(2,8-dimethylimidazo[1,2-a]pyridin-3-yl)-1,3-thiazol-2-amine] had a concentration for half-maximal inhibition (IC50) of less than 500 nM.

`Cc1nc2c(Br)cccn2c1-c1csc(Nc2ccc(N(C)C)cc2)n1` [Cpd 227, N′-[4-(8-bromo-2-methylimidazo[1,2-a]pyridin-3-yl)-1,3-thiazol-2-yl]-N,N-dimethylbenzene-1,4-diamine] had an IC50 of less than 500 nM.

As to `COc1ccc(Nc2nc(-c3c(C)nc4c(Br)cccn34)cs2)cc1` [Cpd 228, 4-(8-bromo-2-methylimidazo[1,2-a]pyridin-3-yl)-N-(4-methoxyphenyl)-1,3-thiazol-2-amine], the IC50 was less than 500 nM. With `Cc1ccc(Nc2nc(-c3c(C)nc4c(Br)cccn34)cs2)cc1` [Cpd 229, 4-(8-bromo-2-methylimidazo[1,2-a]pyridin-3-yl)-N-(4-methylphenyl)-1,3-thiazol-2-amine] the figure was less than 500 nM.
